Results taken from publication PMC5218480 (PLoS ONE, 2017).

Test system: MV-4-11 cells
Assay: Gene expression microarray analysis (Affymetrix PrimeView) and GSEA
Format: cell-based, human
Set-up: RFU PODN (11730768_x_at) / Fold change /veh PODN (11730768_x_at) / RFU LINC00158 (11744669_a_at) / Fold change /veh LINC00158 (11744669_a_at) / RFU DUSP10 (11751237_a_at) / Fold change /veh DUSP10 (11751237_a_at) / RFU ID3 (11757404_x_at) / Fold change /veh ID3 (11757404_x_at) / RFU PLEKHG5 (11737974_s_at) / Fold change /veh PLEKHG5 (11737974_s_at) / RFU LRRC4B (11730491_at) / Fold change /veh LRRC4B (11730491_at) / RFU GIMAP4 (11747438_a_at) / Fold change /veh GIMAP4 (11747438_a_at) / RFU KRT8 (11758183_x_at) / Fold change /veh KRT8 (11758183_x_at) / RFU CNN1 (11734310_a_at) / Fold change /veh CNN1 (11734310_a_at) / RFU VPS37D (11726825_at) / Fold change /veh VPS37D (11726825_at) / RFU C10orf10 (11716522_x_at) / Fold change /veh C10orf10 (11716522_x_at) / RFU KIR2DL2 /// KIR2DL4 /// KIR2DL5A /// KIR2DL5B /// KIR2DS1 /// KIR2DS2 /// KIR2DS3 /// KIR2DS4 /// KIR3DL3 /// KIR3DL3 /// KIR3DS1 (11738374_at) / Fold change /veh KIR2DL2 /// KIR2DL4 /// KIR2DL5A /// KIR2DL5B /// KIR2DS1 /// KIR2DS2 /// KIR2DS3 /// KIR2DS4 /// KIR3DL3 /// KIR3DL3 /// KIR3DS1 (11738374_at) / RFU C1QL1 (11718748_at) / Fold change /veh C1QL1 (11718748_at) / RFU TMPRSS4 (11747572_a_at) / Fold change /veh TMPRSS4 (11747572_a_at) / RFU HAMP (11756126_x_at) / Fold change /veh HAMP (11756126_x_at) / RFU RNFT2 (11725882_a_at) / Fold change /veh RNFT2 (11725882_a_at) / RFU NR4A2 (11747474_a_at) / Fold change /veh NR4A2 (11747474_a_at) / RFU ABCC12 (11746883_a_at) / Fold change /veh ABCC12 (11746883_a_at) / RFU TMEM136 (11760407_x_at) / Fold change /veh TMEM136 (11760407_x_at) / RFU CLDN22 /// WWC2 (11732394_at) / Fold change /veh CLDN22 /// WWC2 (11732394_at) / RFU HLA-DPB1 (11760878_x_at) / Fold change /veh HLA-DPB1 (11760878_x_at) / RFU SPINT1 (11716480_a_at) / Fold change /veh SPINT1 (11716480_a_at) / RFU GAP43 (11754022_s_at) / Fold change /veh GAP43 (11754022_s_at) / RFU A4GNT (11735810_at) / Fold change /veh A4GNT (11735810_at) / RFU PRB3 (11715151_x_at) / Fold change /veh PRB3 (11715151_x_at) / RFU TUBB4B (11761932_at) / Fold change /veh TUBB4B (11761932_at) / RFU CAPN14 (11732068_a_at) / Fold change /veh CAPN14 (11732068_a_at) / RFU TMCC2 (11721928_a_at) / Fold change /veh TMCC2 (11721928_a_at) / RFU IRGQ (11745062_a_at) / Fold change /veh IRGQ (11745062_a_at) / RFU FAM174B (11720279_a_at) / Fold change /veh FAM174B (11720279_a_at) / RFU TMPRSS4 (11748680_a_at) / Fold change /veh TMPRSS4 (11748680_a_at) / RFU FAM212B (11763350_a_at) / Fold change /veh FAM212B (11763350_a_at) / RFU PLEKHG5 (11743358_a_at) / Fold change /veh PLEKHG5 (11743358_a_at) / RFU ZSCAN30 (11745921_a_at) / Fold change /veh ZSCAN30 (11745921_a_at) / RFU CMKLR1 (11741424_a_at) / Fold change /veh CMKLR1 (11741424_a_at) / RFU LOC101060620 /// MAPK8IP1 (11723275_at) / Fold change /veh LOC101060620 /// MAPK8IP1 (11723275_at) / RFU SPTSSB (11747773_x_at) / Fold change /veh SPTSSB (11747773_x_at) / RFU PRSS12 (11739890_at) / Fold change /veh PRSS12 (11739890_at) / RFU BIN1 (11741810_x_at) / Fold change /veh BIN1 (11741810_x_at) / RFU WNT11 (11732464_a_at) / Fold change /veh WNT11 (11732464_a_at) / RFU C10orf10 (11716521_a_at) / Fold change /veh C10orf10 (11716521_a_at) / RFU C5orf56 (11738089_at) / Fold change /veh C5orf56 (11738089_at) / RFU CYB561 (11721691_x_at) / Fold change /veh CYB561 (11721691_x_at) / RFU ANKRD19P (11752326_a_at) / Fold change /veh ANKRD19P (11752326_a_at) / RFU OR2T12 /// OR2T33 /// OR2T8 (11738714_s_at) / Fold change /veh OR2T12 /// OR2T33 /// OR2T8 (11738714_s_at) / RFU VCAN (11748164_a_at) / Fold change /veh VCAN (11748164_a_at) / RFU JSRP1 (11732532_at) / Fold change /veh JSRP1 (11732532_at) / RFU KRTAP10-11 (11738290_x_at) / Fold change /veh KRTAP10-11 (11738290_x_at) / RFU MYO3A (11730013_a_at) / Fold change /veh MYO3A (11730013_a_at) / RFU EBF3 (11725865_a_at) / Fold change /veh EBF3 (11725865_a_at) / RFU CAMK2N1 (11719241_x_at) / Fold change /veh CAMK2N1 (11719241_x_at) / RFU C5orf56 (11738088_a_at) / Fold change /veh C5orf56 (11738088_a_at) / RFU OLFML3 (11715873_a_at) / Fold change /veh OLFML3 (11715873_a_at) / RFU LOC100653217 /// NTM (11731650_a_at) / Fold change /veh LOC100653217 /// NTM (11731650_a_at) / RFU MAPK11 (11762145_a_at) / Fold change /veh MAPK11 (11762145_a_at) / RFU FIZ1 (11724087_x_at) / Fold change /veh FIZ1 (11724087_x_at) / RFU OASL (11726364_x_at) / Fold change /veh OASL (11726364_x_at) / RFU SOX15 (11748057_x_at) / Fold change /veh SOX15 (11748057_x_at) / RFU CD79A (11719716_a_at) / Fold change /veh CD79A (11719716_a_at) / RFU HIST1H1D (11736915_at) / Fold change /veh HIST1H1D (11736915_at) / RFU CASKIN2 (11723855_a_at) / Fold change /veh CASKIN2 (11723855_a_at) / RFU LOC730098 (11760151_x_at) / Fold change /veh LOC730098 (11760151_x_at) / RFU OR4N2 (11742367_at) / Fold change /veh OR4N2 (11742367_at) / RFU PRRT2 (11749266_a_at) / Fold change /veh PRRT2 (11749266_a_at) / RFU SNX32 (11753110_a_at) / Fold change /veh SNX32 (11753110_a_at) / RFU CDHR5 (11726645_a_at) / Fold change /veh CDHR5 (11726645_a_at) / RFU RCAN1 (11760418_a_at) / Fold change /veh RCAN1 (11760418_a_at) / RFU FAM167A (11723789_a_at) / Fold change /veh FAM167A (11723789_a_at) / RFU FAM26E (11764081_at) / Fold change /veh FAM26E (11764081_at) / RFU ISYNA1 (11749810_s_at) / Fold change /veh ISYNA1 (11749810_s_at) / RFU ACY1 (11761880_at) / Fold change /veh ACY1 (11761880_at) / RFU 11764098_at / Fold change /veh 11764098_at / RFU SAMD14 (11745864_x_at) / Fold change /veh SAMD14 (11745864_x_at) / RFU NPB (11741838_a_at) / Fold change /veh NPB (11741838_a_at) / RFU TMPRSS6 (11731388_a_at) / Fold change /veh TMPRSS6 (11731388_a_at) / RFU KRTAP10-2 (11738614_at) / Fold change /veh KRTAP10-2 (11738614_at) / RFU ARHGAP8 /// PRR5-ARHGAP8 (11727945_x_at) / Fold change /veh ARHGAP8 /// PRR5-ARHGAP8 (11727945_x_at) / RFU KRTAP5-7 /// NADSYN1 (11734609_at) / Fold change /veh KRTAP5-7 /// NADSYN1 (11734609_at) / RFU RASL12 (11751679_a_at) / Fold change /veh RASL12 (11751679_a_at) / RFU CDKN2B (11736163_a_at) / Fold change /veh CDKN2B (11736163_a_at) / RFU PRF1 (11729649_at) / Fold change /veh PRF1 (11729649_at) / RFU, ZNF638 /// ZNF638-IT1 / Fold change vs veh, ZNF638 /// ZNF638-IT1 / RFU, PANK3 / Fold change vs veh, PANK3 / RFU, SH3YL1 / Fold change vs veh, SH3YL1 / RFU, ZEB2 / Fold change vs veh, ZEB2 / RFU, NRIP1 / Fold change vs veh, NRIP1 / RFU, PTTG1IP / Fold change vs veh, PTTG1IP / RFU, CAPN2 / Fold change vs veh, CAPN2 / RFU, MED14 / Fold change vs veh, MED14 / RFU, SNORA58 / Fold change vs veh, SNORA58 / RFU, C1orf63 / Fold change vs veh, C1orf63 / RFU, LRRFIP1 / Fold change vs veh, LRRFIP1 / RFU, NDUFAF7 / Fold change vs veh, NDUFAF7 / RFU, SLC12A2 / Fold change vs veh, SLC12A2 / RFU, IBTK / Fold change vs veh, IBTK / RFU, ESF1 / Fold change vs veh, ESF1 / Fold change vs veh, TMEM50B / RFU, TAOK1 / Fold change vs veh, TAOK1 / RFU, ACBD3 / Fold change vs veh, ACBD3 / RFU, TMA16 / Fold change vs veh, TMA16 / RFU, RWDD3 / Fold change vs veh, RWDD3 / RFU, BCAT1 / Fold change vs veh, BCAT1 / RFU, EDEM3 / Fold change vs veh, EDEM3 / RFU, TMEM33 / Fold change vs veh, TMEM33 / RFU, WDR75 / Fold change vs veh, WDR75 / RFU, AHCTF1 / Fold change vs veh, AHCTF1 / RFU, TFRC / Fold change vs veh, TFRC / RFU, ZDHHC17 / Fold change vs veh, ZDHHC17 / RFU, NOM1 / Fold change vs veh, NOM1 / RFU, ARL8B / Fold change vs veh, ARL8B / RFU, ZBTB11 / Fold change vs veh, ZBTB11 / RFU, TAMM41 / Fold change vs veh, TAMM41 / RFU, KIAA1704 /// LOC100996395 / Fold change vs veh, KIAA1704 /// LOC100996395 / RFU, ING1 / Fold change vs veh, ING1 / RFU, TRMT61B / Fold change vs veh, TRMT61B / RFU, FUBP3 / Fold change vs veh, FUBP3 / RFU, TP53 / Fold change vs veh, TP53 / RFU, TNKS2 / Fold change vs veh, TNKS2 / RFU, ZFP14 / Fold change vs veh, ZFP14 / RFU, ACTR2 / Fold change vs veh, ACTR2 / RFU, PPP3R1 / Fold change vs veh, PPP3R1 / RFU, PIK3R1 / Fold change vs veh, PIK3R1 / RFU, HNRNPA1 / Fold change vs veh, HNRNPA1 / RFU, RNF170 / Fold change vs veh, RNF170 / RFU, ZNF28 / Fold change vs veh, ZNF28 / RFU, RNGTT / Fold change vs veh, RNGTT / RFU, OGT / Fold change vs veh, OGT / RFU, BRD1 / Fold change vs veh, BRD1 / RFU, MARS / Fold change vs veh, MARS / RFU, ZNF655 / Fold change vs veh, ZNF655 / RFU, FAHD1 / Fold change vs veh, FAHD1 / RFU, BDP1 / Fold change vs veh, BDP1 / RFU, LRRCC1 / Fold change vs veh, LRRCC1 / RFU, ARID1A / Fold change vs veh, ARID1A / RFU, ZNF146 / Fold change vs veh, ZNF146 / RFU, ZNF330 / Fold change vs veh, ZNF330 / RFU, GPN3 / Fold change vs veh, GPN3 / RFU, C9orf123 / Fold change vs veh, C9orf123 / RFU, N4BP2L2 / Fold change vs veh, N4BP2L2 / RFU, ARFIP1 / Fold change vs veh, ARFIP1 / RFU, FAM179B / Fold change vs veh, FAM179B / RFU, BCL10 / Fold change vs veh, BCL10 / RFU, UHRF1BP1L / Fold change vs veh, UHRF1BP1L / RFU, BET1 / Fold change vs veh, BET1 / RFU, CNOT2 / Fold change vs veh, CNOT2 / RFU, ZNF268 / Fold change vs veh, ZNF268 / Fold change vs veh, ZNF507 / RFU, DGCR2 / Fold change vs veh, DGCR2 / RFU, WDSUB1 / Fold change vs veh, WDSUB1 / Fold change vs veh, HSP90B1 /// MIR3652 / RFU, ADSS / Fold change vs veh, ADSS / RFU, GK / Fold change vs veh, GK / RFU, ZNF148 / Fold change vs veh, ZNF148 / RFU, TAF9 / Fold change vs veh, TAF9 / RFU, SLC1A5 / Fold change vs veh, SLC1A5 / RFU, SLMO2 / Fold change vs veh, SLMO2 / RFU, ABCC4 / Fold change vs veh, ABCC4 / RFU, LOC101060439 /// RAP1B / Fold change vs veh, LOC101060439 /// RAP1B / RFU, RFX7 / Fold change vs veh, RFX7 / RFU, GTPBP10 / Fold change vs veh, GTPBP10 / RFU, CNEP1R1 / Fold change vs veh, CNEP1R1 / RFU, BIVM-ERCC5 /// ERCC5 / Fold change vs veh, BIVM-ERCC5 /// ERCC5 / RFU, ILF3 / Fold change vs veh, ILF3 / RFU 11762660_at / Fold change /veh 11762660_at / RFU VCAN (11757783_s_at) / Fold change /veh VCAN (11757783_s_at) / RFU DDX43 (11728927_at) / Fold change /veh DDX43 (11728927_at) / RFU KRT8 (11758188_x_at) / Fold change /veh KRT8 (11758188_x_at) / RFU NKD1 (11759106_at) / Fold change /veh NKD1 (11759106_at) / RFU SRD5A1 (11742802_a_at) / Fold change /veh SRD5A1 (11742802_a_at) / RFU TPSAB1 /// TPSB2 (11721975_s_at) / Fold change /veh TPSAB1 /// TPSB2 (11721975_s_at) / RFU GSTM3 (11746129_a_at) / Fold change /veh GSTM3 (11746129_a_at) / RFU IL23R (11737362_x_at) / Fold change /veh IL23R (11737362_x_at) / RFU TMEM51 (11727254_a_at) / Fold change /veh TMEM51 (11727254_a_at) / RFU PIWIL2 (11732686_x_at) / Fold change /veh PIWIL2 (11732686_x_at) / RFU ORM1 (11744905_x_at) / Fold change /veh ORM1 (11744905_x_at) / RFU CCDC152 (11743942_at) / Fold change /veh CCDC152 (11743942_at) / RFU ECM1 (11717891_a_at) / Fold change /veh ECM1 (11717891_a_at) / RFU IL23R (11748794_a_at) / Fold change /veh IL23R (11748794_a_at) / RFU TNFAIP8L3 (11732012_x_at) / Fold change /veh TNFAIP8L3 (11732012_x_at) / RFU MBOAT4 (11741988_at) / Fold change /veh MBOAT4 (11741988_at) / RFU 11764193_at / Fold change /veh 11764193_at / RFU TMEM53 (11763286_at) / Fold change /veh TMEM53 (11763286_at) / RFU MAGEB2 (11727129_at) / Fold change /veh MAGEB2 (11727129_at) / RFU TMEM200A (11744735_a_at) / Fold change /veh TMEM200A (11744735_a_at) / RFU CCDC152 (11751479_a_at) / Fold change /veh CCDC152 (11751479_a_at) / RFU FAM211A (11726209_a_at) / Fold change /veh FAM211A (11726209_a_at) / RFU RGS16 (11746705_a_at) / Fold change /veh RGS16 (11746705_a_at) / RFU VCAN (11755009_s_at) / Fold change /veh VCAN (11755009_s_at) / RFU RHOB (11743442_s_at) / Fold change /veh RHOB (11743442_s_at) / RFU RGS16 (11720943_a_at) / Fold change /veh RGS16 (11720943_a_at) / RFU RGS16 (11720944_at) / Fold change /veh RGS16 (11720944_at) / RFU, VPS4B / Fold change vs veh, VPS4B / RFU, CREB1 / Fold change vs veh, CREB1 / RFU, DNAJC13 / Fold change vs veh, DNAJC13 / RFU, GNAQ / Fold change vs veh, GNAQ / RFU, CDK5R1 / Fold change vs veh, CDK5R1 / RFU, ZRANB3 / Fold change vs veh, ZRANB3 / RFU, CUL4A / Fold change vs veh, CUL4A / RFU, CCNY / Fold change vs veh, CCNY / RFU, UFL1 / Fold change vs veh, UFL1 / RFU, COG3 / Fold change vs veh, COG3 / RFU, DIAPH2 / Fold change vs veh, DIAPH2 / RFU, SKA2 / Fold change vs veh, SKA2 / RFU, AFF3 / Fold change vs veh, AFF3 / RFU, LMF1 / Fold change vs veh, LMF1 / RFU, IPO11 / Fold change vs veh, IPO11 / RFU, DFFB / Fold change vs veh, DFFB / RFU, FOXP1 / Fold change vs veh, FOXP1 / RFU, CARD8 / Fold change vs veh, CARD8 / RFU, STRN3 / Fold change vs veh, STRN3 / RFU, ADK / Fold change vs veh, ADK / RFU, RASSF2 / Fold change vs veh, RASSF2 / RFU, WIPF1 / Fold change vs veh, WIPF1 / RFU, LARP1B / Fold change vs veh, LARP1B / RFU, RASA1 / Fold change vs veh, RASA1 / RFU, RB1 / Fold change vs veh, RB1 / RFU, PPFIA1 / Fold change vs veh, PPFIA1 / RFU, MAT2A / Fold change vs veh, MAT2A / RFU, CCT5 / Fold change vs veh, CCT5 / RFU, WDR92 / Fold change vs veh, WDR92 / RFU, CUX1 / Fold change vs veh, CUX1 / RFU, TTC7A / Fold change vs veh, TTC7A / RFU, TMEM135 / Fold change vs veh, TMEM135 / RFU, DEPTOR / Fold change vs veh, DEPTOR / RFU, CPM / Fold change vs veh, CPM / RFU, DNAJB6 / Fold change vs veh, DNAJB6 / RFU, CACNA2D3 / Fold change vs veh, CACNA2D3 / RFU, DTX4 / Fold change vs veh, DTX4 / RFU, TFCP2 / Fold change vs veh, TFCP2 / RFU, GMCL1 /// GMCL1P1 / Fold change vs veh, GMCL1 /// GMCL1P1 / RFU, AEBP2 / Fold change vs veh, AEBP2 / RFU, SNHG1 /// SNORD22 /// SNORD25 /// SNORD26 /// SNORD27 /// SNORD28 /// SNORD29 /// SNORD31 / Fold change vs veh, SNHG1 /// SNORD22 /// SNORD25 /// SNORD26 /// SNORD27 /// SNORD28 /// SNORD29 /// SNORD31 / Fold change (Aza/veh), C12orf56 (ProbeSet 11735607_a_at) / Fold change (ACY-1035/veh), C12orf56 (ProbeSet 11735607_a_at) / Fold change (Aza/veh), FGFR1OP (ProbeSet 11751329_s_at) / Fold change (ACY-1035/veh), FGFR1OP (ProbeSet 11751329_s_at) / Fold change (Aza/veh), VPS36 (ProbeSet 11739960_a_at) / Fold change (ACY-1035/veh), VPS36 (ProbeSet 11739960_a_at) / RFU SYPL1 (11715823_x_at) / Fold change /veh SYPL1 (11715823_x_at) / RFU IGFBP7 (11715501_s_at) / Fold change /veh IGFBP7 (11715501_s_at) / RFU REEP3 (11722064_at) / Fold change /veh REEP3 (11722064_at) / RFU IGLL1 (11728026_x_at) / Fold change /veh IGLL1 (11728026_x_at): dose or concentration left out as unconfirmed
Details: MV-4-11 cells, 48 hours

In the case of `Nc1ccc(-c2cccs2)cc1NC(=O)c1ccc2c(c1)cc(C1CC1)n2CCN1CCOCC1` [ACY-1035], the “Fold change /veh OLFML3 (11715873_a_at)” value is reported as 1.17.
